In ChEMBL document CHEMBL1201862, “PubChem BioAssay data set” (2004):
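96-well plates; 48 h exposure; 5 concentrations. Endpoints by linear interpolation between flanking doses. Not reached: highest tested concentration assigned. GI50 is the concentration that inhibits growth by half.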 Activity calls are given as the source filed them. Rule as the data show it: active = GI50 up to about 1.1 µM and inactive = higher.

How the values were obtained:
Experiment in all cases: growth of human tumour cells (NCI), 48 h
[1] = system: 786-0
[2] = system: A498
[3] = system: NCI-H23
[4] = system: UACC-62
[5] = system: UACC-257
[6] = system: SF-539
[7] = system: A549
[8] = system: COLO 205
[9] = system: U-251
[10] = system: Malme-3M
[11] = system: TK-10
[12] = system: HOP-18
[13] = system: SNB-19
[14] = system: MOLT-4
[15] = system: SR
[16] = system: HOP-62
[17] = system: SN12C
[18] = system: SNB-75
[19] = system: KM-20L2
[20] = system: HCC 2998
[21] = system: LXFL 529
[22] = system: SK-MEL-5
[23] = system: SK-MEL-28
[24] = system: OVCAR-3
[25] = system: EKVX
[26] = system: CAKI-1
[27] = system: K562
[28] = system: HOP-92
[29] = system: HL-60
[30] = system: M19-MEL
[31] = system: SF-295
[32] = system: CCRF-CEM
[33] = system: RPMI-8226
[34] = system: NCI-H522
[35] = system: OVCAR-4
[36] = system: RXF 631
[37] = system: HCT-15
[38] = system: OVCAR-8
[39] = system: SK-OV-3
[40] = system: M14
[41] = system: OVCAR-5
[42] = system: DMS-273
[43] = system: LOX IMVI
[44] = system: HT-29
[45] = system: IGROV-1
[46] = system: UO-31
[47] = system: SW-620
[48] = system: SF-268
[49] = system: ACHN
[50] = system: HCT-116
[51] = system: DLD-1
[52] = system: SNB-78
[53] = system: NCI-H460
[54] = system: KM12
[55] = system: DMS-114
[56] = system: SK-MEL-2
[57] = system: RXF 393
[58] = system: NCI-H226

## CN(c1ccccc1)C(c1ccccc1)C(O)c1ccccc1 (stereo not drawn)
[1]
  GI50: 18.2 µM (inactive)
[2]
  GI50: 22 µM (inactive)
[3]
  GI50: 22.4 µM (inactive)
[4]
  GI50: 17.9 µM (inactive)
[5]
  GI50: 19.3 µM (inactive)
[6]
  GI50: 22.1 µM (inactive)
[7]
  GI50: 18.6 µM (inactive)
[8]
  GI50: 16.3 µM (inactive)
[9]
  GI50: 17.9 µM (inactive)
[10]
  GI50: 16.3 µM (inactive)
[11]
  GI50: 24.2 µM (inactive)
[12]
  GI50: 14.9 µM (inactive)
[13]
  GI50: 16.8 µM (inactive)
[14]
  GI50: 12.8 µM (inactive)
[15]
  GI50: 20.6 µM (inactive)
[16]
  GI50: 20.4 µM (inactive)
[17]
  GI50: 17.1 µM (inactive)
[18]
  GI50: 24.1 µM (inactive)
[19]
  GI50: 19.4 µM (inactive)
[20]
  GI50: 22.9 µM (inactive)
[21]
  GI50: 21 µM (inactive)
[22]
  GI50: 19.4 µM (inactive)
[23]
  GI50: 20.5 µM (inactive)
[24]
  GI50: 17.3 µM (inactive)
[25]
  GI50: 25.1 µM (inactive)
[26]
  GI50: 20.5 µM (inactive)
[27]
  GI50: 17.2 µM (inactive)
[28]
  GI50: 29.9 µM (inactive)
[29]
  GI50: 15.5 µM (inactive)
[30]
  GI50: 23.1 µM (inactive)
[31]
  GI50: 15.8 µM (inactive)
[32]
  GI50: 26.7 µM (inactive)
[33]
  GI50: 20.8 µM (inactive)
[34]
  GI50: 20 µM (inactive)
[35]
  GI50: 18.1 µM (inactive)
[36]
  GI50: 18.8 µM (inactive)
[37]
  GI50: 21.7 µM
[38]
  GI50: 19.2 µM (inactive)
[39]
  GI50: 22.6 µM (inactive)
[40]
  GI50: 16.6 µM (inactive)
[41]
  GI50: 19.5 µM (inactive)
[42]
  GI50: 18.7 µM (inactive)
[43]
  GI50: 17 µM (inactive)
[44]
  GI50: 17.9 µM (inactive)
[45]
  GI50: 22.2 µM (inactive)
[46]
  GI50: 21.3 µM (inactive)
[47]
  GI50: 18.4 µM (inactive)
[48]
  GI50: 21.4 µM (inactive)
[49]
  GI50: 22.6 µM (inactive)
[50]
  GI50: 18.6 µM (inactive)
[51]
  GI50: 23.9 µM (inactive)
[52]
  GI50: 22.6 µM (inactive)
[53]
  GI50: 20.1 µM (inactive)
[54]
  GI50: 17.9 µM (inactive)
[55]
  GI50: 20.9 µM (inactive)
[56]
  GI50: 16.7 µM (inactive)

## COc1cc2cnc3c4cc(OC)c(OC(C)C)cc4ccc3c2cc1OC
[1]
  GI50: > 100 µM (inactive)
[3]
  GI50: > 100 µM (inactive)
[4]
  GI50: > 100 µM (inactive)
[5]
  GI50: > 100 µM (inactive)
[6]
  GI50: > 100 µM (inactive)
[7]
  GI50: > 100 µM (inactive)
[8]
  GI50: > 100 µM (inactive)
[9]
  GI50: > 100 µM (inactive)
[10]
  GI50: > 100 µM (inactive)
[11]
  GI50: > 100 µM (inactive)
[12]
  GI50: > 100 µM (inactive)
[57]
  GI50: > 100 µM (inactive)
[13]
  GI50: > 100 µM (inactive)
[14]
  GI50: > 100 µM (inactive)
[15]
  GI50: > 100 µM (inactive)
[16]
  GI50: > 100 µM (inactive)
[17]
  GI50: > 100 µM (inactive)
[18]
  GI50: > 100 µM (inactive)
[19]
  GI50: > 100 µM (inactive)
[20]
  GI50: > 100 µM (inactive)
[21]
  GI50: > 100 µM (inactive)
[22]
  GI50: > 100 µM (inactive)
[23]
  GI50: > 100 µM (inactive)
[24]
  GI50: > 100 µM (inactive)
[25]
  GI50: > 100 µM (inactive)
[26]
  GI50: > 100 µM (inactive)
[27]
  GI50: > 100 µM (inactive)
[28]
  GI50: > 100 µM (inactive)
[29]
  GI50: > 100 µM (inactive)
[30]
  GI50: > 100 µM (inactive)
[31]
  GI50: > 100 µM (inactive)
[32]
  GI50: > 100 µM (inactive)
[33]
  GI50: > 100 µM (inactive)
[58]
  GI50: > 100 µM (inactive)
[34]
  GI50: > 100 µM (inactive)
[35]
  GI50: > 100 µM (inactive)
[36]
  GI50: > 100 µM (inactive)
[37]
  GI50: > 100 µM
[38]
  GI50: > 100 µM (inactive)
[39]
  GI50: > 100 µM (inactive)
[40]
  GI50: > 100 µM (inactive)
[41]
  GI50: > 100 µM (inactive)
[42]
  GI50: > 100 µM (inactive)
[43]
  GI50: > 100 µM (inactive)
[44]
  GI50: > 100 µM (inactive)
[45]
  GI50: > 100 µM (inactive)
[46]
  GI50: > 100 µM (inactive)
[47]
  GI50: > 100 µM (inactive)
[48]
  GI50: > 100 µM (inactive)
[49]
  GI50: > 100 µM (inactive)
[50]
  GI50: > 100 µM (inactive)
[51]
  GI50: > 100 µM (inactive)
[52]
  GI50: > 100 µM (inactive)
[53]
  GI50: > 100 µM (inactive)
[54]
  GI50: > 100 µM (inactive)
[55]
  GI50: > 100 µM (inactive)
[56]
  GI50: > 100 µM (inactive)

## COc1ccc(/N=N/c2c(-c3ccccc3)nn(C(=O)CC(=O)Nc3ccccc3Cl)c2-c2ccccc2)cc1
[1]
  GI50: > 100 µM (inactive)
[2]
  GI50: > 100 µM (inactive)
[3]
  GI50: > 100 µM (inactive)
[4]
  GI50: > 100 µM (inactive)
[5]
  GI50: > 100 µM (inactive)
[6]
  GI50: > 100 µM (inactive)
[7]
  GI50: > 100 µM (inactive)
[8]
  GI50: > 100 µM (inactive)
[9]
  GI50: > 100 µM (inactive)
[10]
  GI50: > 100 µM (inactive)
[11]
  GI50: 77.6 µM (inactive)
[12]
  GI50: > 100 µM (inactive)
[57]
  GI50: > 100 µM (inactive)
[13]
  GI50: > 100 µM (inactive)
[14]
  GI50: 3.42 µM (inactive)
[15]
  GI50: 2.82 µM (inactive)
[16]
  GI50: > 100 µM (inactive)
[17]
  GI50: > 100 µM (inactive)
[18]
  GI50: 6.12 µM (inactive)
[19]
  GI50: > 100 µM (inactive)
[20]
  GI50: > 100 µM (inactive)
[21]
  GI50: > 100 µM (inactive)
[22]
  GI50: > 100 µM (inactive)
[23]
  GI50: > 100 µM (inactive)
[24]
  GI50: 36.9 µM (inactive)
[25]
  GI50: > 100 µM (inactive)
[26]
  GI50: > 100 µM (inactive)
[27]
  GI50: 30.7 µM (inactive)
[28]
  GI50: 20.6 µM (inactive)
[29]
  GI50: 22.6 µM (inactive)
[30]
  GI50: > 100 µM (inactive)
[31]
  GI50: > 100 µM (inactive)
[32]
  GI50: 30.8 µM (inactive)
[58]
  GI50: > 100 µM (inactive)
[34]
  GI50: > 100 µM (inactive)
[35]
  GI50: 57 µM (inactive)
[36]
  GI50: > 100 µM (inactive)
[37]
  GI50: 58.9 µM
[38]
  GI50: > 100 µM (inactive)
[40]
  GI50: > 100 µM (inactive)
[41]
  GI50: 97.5 µM (inactive)
[42]
  GI50: > 100 µM (inactive)
[43]
  GI50: > 100 µM (inactive)
[44]
  GI50: 47.1 µM (inactive)
[45]
  GI50: > 100 µM (inactive)
[46]
  GI50: 42.9 µM (inactive)
[47]
  GI50: > 100 µM (inactive)
[48]
  GI50: 82.8 µM (inactive)
[49]
  GI50: > 100 µM (inactive)
[50]
  GI50: > 100 µM (inactive)
[51]
  GI50: > 100 µM (inactive)
[52]
  GI50: > 100 µM (inactive)
[53]
  GI50: > 100 µM (inactive)
[54]
  GI50: 87.1 µM (inactive)
[55]
  GI50: 25.9 µM (inactive)
